Results reported in US5681832A, “Aroylaniline compounds, pharmaceutical compositions, and methods of using same to inhibit viral activity” (priority 1995, dated 1997).
pEC50, pIC50: −log10 of the molar value. Where two headings read alike, the source gives them in different places.

Legend:
[1] = system: T4 lymphocytes (CEM cell line); assay: toxicity control: survival of uninfected T4 lymphocytes (CEM cell line) treated with compound (growth inhibition); format: cell-based; conditions: for pIC50: read-out: IC50 (Molar)
Description: (§1) 1. Candidate agent is dissolved in dimethyl sulfoxide (unless otherwise instructed) and then diluted 1:100 in cell culture medium before preparing serial half-log10 dilutions which are then to 96-well microfilter plates. T4 lymphocytes (CEM cell line) are added, and after a brief interval HIV-1 is added to all wells, resulting in a 1:200 final dilution […]. Uninfected cells with the compound serve as a toxicity control, and infected and uninfected cells without the compound serve as basic controls.
(§2) 2. Cultures are incubated at 37° C. in a 5% carbon dioxide atmosphere for 6 days.
(§3) 3. The tetrazolium salt, XTT, is added to all wells, and cultures are incubated to allow formazan color development by viable cells.
(§4) 4. Individual wells are analyzed spectrophotometrically to quantitate formazan production, and in addition are viewed microscopically for detection of viable cells and confirmation of protective activity.
(§5) 5. Drug-tested virus-infected cells are compared with drug-treated noninfected cells and with other appropriate controls (untreated infected and untreated noninfected cells, drug-containing wells without cells, etc.) on the same plate.
(§6) FIGS. 1 to 6 display a plot of the log10 of the concentrations (as μg/mL or molar as shown) of the aroylaniline compounds, Compounds 1, 3, 13, 14, 29 and 32, against the measured test values expressed as a percentage of the uninfected, untreated control values. The solid line depicts the percentage of surviving HIV-infected cells treated with sample (at the indicated concentration) relative to uninfected, untreated controls. Thus, the solid line expresses the anti-HIV activity of the compound. The dashed line depicts the percentage of surviving uninfected cells treated with the compound relative to the same uninfected, untreated controls. Thus, the dashed line expresses the growth inhibitory properties of the compound. The viral cytopathic effect […] is indicated by a dotted reference line. […] Survival values of this parameter less than 50% are considered acceptable in the current protocol. Approximate values for 50% effective concentration (EC50) have been calculated for each test and are set forth for these Compounds in Tables 2-7, respectively.

[2] = system: HIV-1; assay: in vitro anti-HIV screening (NCI XTT soluble-formazan assay, protection of HIV-1-infected CEM T4 lymphocytes from cytolysis); format: cell-based; conditions: for pEC50: HIV-1-infected CEM cells, 6 days, approximate values, read-out: EC50 (Molar), 50% effective concentration; for Conclusion: NCI anti-HIV screen
From the text: The aroylaniline compounds of the present invention were subjected to in vitro screening to determine their anti-HIV activity.
The National Cancer Institute's procedure for testing for agents active against Human Immunodeficiency Virus (HIV) (Weislow, O. W. et al., "New soluble-formazan assay for HIV-1 cytopathic effects: application to high-flux screening of synthetic and natural products for AIDS-antiviral activity," J. Natl Cancer Inst., 81, 577-586 (1989)) is designed to detect agents acting at any stage of the virus reproductive cycle. The assay includes the killing of T4 lymphocytes by HIV. Pursuant to the test, small amounts of HIV are added to cells, and a complete cycle of virus reproduction is necessary to obtain the required cell killing. Agents that interact with virions, cells, or virus gene-products to interfere with viral activities will protect cells from cytolysis. The system is thus designed to detect anti-HIV activity. However, compounds that are chemically labile or are rapidly metabolized in the culture conditions may not show activity in this screen. All tests are compared with at least one positive (e.g., AZT-treated) control done at the same time under identical conditions.
as §1, §2, §3, §4, §5
6. Data are reviewed in comparison with other tests done at the same time and a determination about activity is made.
The aroylaniline compounds of the present invention were tested for anti-HIV activity according to the above procedure. FIGS. 1-6 represent test results of the aroylaniline compounds of Compounds 1, 3, 13, 14, 29 and 32.
as §6

[3] = Homo sapiens, CCRF-CEM, read-out: Percent of Control, Uninfected

How did the pIC50 ([1]; Homo sapiens, CCRF-CEM, 144 h) turn out when `O=C([O-])c1c(O)ccc(O)c1C(=O)Nc1ccc(C=Cc2ccc(NC(=O)c3c(O)ccc(O)c3C(=O)[O-])cc2S(=O)(=O)O)c(S(=O)(=O)O)c1.[Na+].[Na+]` [Compound 29, 4,4'-di(2-carboxy-3,6-dihydroxybenzamido)stilbene-2,2'-disulfonic acid disodium salt] was run?
The pIC50 was < 3.66.

What about the activity at 0.0635 µM [1, 3] of the same compound?
The activity at 0.0635 µM was 93.2%.

And the activity at 0.2 µM [1, 3]?
Its activity at 0.2 µM is 93.8%.

And the activity at 0.634 µM [1, 3]?
The activity at 0.634 µM was 92.8%.

What about the activity at 2 µM [1, 3] of the same compound?
The activity at 2 µM was 95.2%.

And the activity at 6.33 µM [1, 3]?
Its activity at 6.33 µM is 96.7%.

What about the activity at 20 µM [1, 3] of the same compound?
The activity at 20 µM was 99%.

What about the activity at 63.2 µM [1, 3] of the same compound?
Its activity at 63.2 µM is 100%.

What about the activity at 200 µM [1, 3] of the same compound?
Its activity at 200 µM is 93%.

What about the pEC50 ([2]; Human immunodeficiency virus 1, CCRF-CEM, 144 h) of the same compound?
The pEC50 was 4.90.

What about the inhibition at 200 µM ([2]; Human immunodeficiency virus 1, CCRF-CEM, 2.00 × 10^-4 Molar, read-out: Percent of Protection) of the same compound?
The inhibition at 200 µM was 79.7%.

And the inhibition at 20 µM ([2]; Human immunodeficiency virus 1, CCRF-CEM, 2.00 × 10^-5 Molar, read-out: Percent of Protection)?
The inhibition at 20 µM was 83.3%.

What about the inhibition at 2 µM ([2]; Human immunodeficiency virus 1, CCRF-CEM, 2.00 × 10^-6 Molar, read-out: Percent of Protection) of the same compound?
Its inhibition at 2 µM is 0.58%.

And the inhibition at 0.2 µM ([2]; Human immunodeficiency virus 1, CCRF-CEM, 2.00 × 10^-7 Molar, read-out: Percent of Protection)?
The inhibition at 0.2 µM was -1.09%.

And the inhibition at 63.2 µM ([2]; Human immunodeficiency virus 1, CCRF-CEM, 6.32 × 10^-5 Molar, read-out: Percent of Protection)?
The inhibition at 63.2 µM was 92.7%.

What about the inhibition at 6.33 µM ([2]; Human immunodeficiency virus 1, CCRF-CEM, 6.33 × 10^-6 Molar, read-out: Percent of Protection) of the same compound?
Its inhibition at 6.33 µM is 2.47%.

And the inhibition at 0.634 µM ([2]; Human immunodeficiency virus 1, CCRF-CEM, 6.34 × 10^-7 Molar, read-out: Percent of Protection)?
Its inhibition at 0.634 µM is -0.52%.

And the inhibition at 0.0635 µM ([2]; Human immunodeficiency virus 1, CCRF-CEM, 6.35 × 10^-8 Molar, read-out: Percent of Protection)?
Its inhibition at 0.0635 µM is -3.31%.

And the activity at 200 µM ([2]; Human immunodeficiency virus 1, CEM-T4, 2.00 × 10^-4 Molar, read-out: Percent of Control, Infected)?
Its activity at 200 µM is 81.1%.

What about the activity at 20 µM ([2]; Human immunodeficiency virus 1, CEM-T4, 2.00 × 10^-5 Molar, read-out: Percent of Control, Infected) of the same compound?
Its activity at 20 µM is 84.5%.

And the activity at 2 µM ([2]; Human immunodeficiency virus 1, CEM-T4, 2.00 × 10^-6 Molar, read-out: Percent of Control, Infected)?
Its activity at 2 µM is 7.54%.

What about the activity at 0.2 µM ([2]; Human immunodeficiency virus 1, CEM-T4, 2.00 × 10^-7 Molar, read-out: Percent of Control, Infected) of the same compound?
The activity at 0.2 µM was 5.99%.

What about the activity at 63.2 µM ([2]; Human immunodeficiency virus 1, CEM-T4, 6.32 × 10^-5 Molar, read-out: Percent of Control, Infected) of the same compound?
The activity at 63.2 µM was 93.2%.

And the activity at 6.33 µM ([2]; Human immunodeficiency virus 1, CEM-T4, 6.33 × 10^-6 Molar, read-out: Percent of Control, Infected)?
Its activity at 6.33 µM is 9.3%.

What about the activity at 0.634 µM ([2]; Human immunodeficiency virus 1, CEM-T4, 6.34 × 10^-7 Molar, read-out: Percent of Control, Infected) of the same compound?
Its activity at 0.634 µM is 6.52%.

And the activity at 0.0635 µM ([2]; Human immunodeficiency virus 1, CEM-T4, 6.35 × 10^-8 Molar, read-out: Percent of Control, Infected)?
Its activity at 0.0635 µM is 3.92%.

What about the “TI50 (IC/EC), therapeutic index” value ([2]; IC50/EC50) of the same compound?
Its value is > 1.61 × 10^+1.

And the Conclusion [2]?
The Conclusion was “CONFIRMED ACTIVE”.

How did the “Percent of Control, Uninfected” value ([1]; 2.00 × 10^-4 Molar) turn out when “N,N'-Bis(4-amino-2-sulfobenzoyl)-4,4'-diaminostilbene-2,2-disulfonic acid tetrasodium salt [Compound 32]” was run?
The value was 35.45%.

What about the “Percent of Control, Uninfected” value ([1]; 2.00 × 10^-5 Molar) of the same compound?
Its value is 98.84%.

What about the “Percent of Control, Uninfected” value ([1]; 2.01 × 10^-6 Molar) of the same compound?
The value was 98.97%.

What about the “Percent of Control, Uninfected” value ([1]; 2.01 × 10^-7 Molar) of the same compound?
The value was 82.40%.

What about the “Percent of Control, Uninfected” value ([1]; 6.33 × 10^-5 Molar) of the same compound?
Its value is 95.50%.

What about the “Percent of Control, Uninfected” value ([1]; 6.34 × 10^-6 Molar) of the same compound?
The value was 94.34%.

And the “Percent of Control, Uninfected” value ([1]; 6.35 × 10^-7 Molar)?
Its value is 95.11%.

What about the “Percent of Control, Uninfected” value ([1]; 6.36 × 10^-8 Molar) of the same compound?
Its value is 83.94%.

What about the pIC50 ([1]; uninfected CEM cells, 6 days) of the same compound?
Its pIC50 is 3.82.

And the “Percent of Control, Infected” value ([2]; 2.00 × 10^-4 Molar)?
Its value is 61.85%.

What about the “Percent of Protection” value ([2]; 2.00 × 10^-4 Molar, 200 µM) of the same compound?
Its value is 52.90%.

What about the “Percent of Control, Infected” value ([2]; 2.00 × 10^-5 Molar) of the same compound?
The value was 112.68%.

What about the “Percent of Protection” value ([2]; 2.00 × 10^-5 Molar, 20 µM) of the same compound?
Its value is 115.65%.

What about the “Percent of Control, Infected” value ([2]; 2.01 × 10^-6 Molar) of the same compound?
Its value is 97.97%.

What about the “Percent of Protection” value ([2]; 2.01 × 10^-6 Molar, 2.01 µM) of the same compound?
The value was 97.49%.

And the “Percent of Control, Infected” value ([2]; 2.01 × 10^-7 Molar)?
The value was 14.10%.

What about the “Percent of Protection” value ([2]; 2.01 × 10^-7 Molar, 0.201 µM) of the same compound?
Its value is -6.05%.

And the “Percent of Control, Infected” value ([2]; 6.33 × 10^-5 Molar)?
The value was 115.38%.

What about the “Percent of Protection” value ([2]; 6.33 × 10^-5 Molar, 63.3 µM) of the same compound?
Its value is 118.99%.

And the “Percent of Control, Infected” value ([2]; 6.34 × 10^-6 Molar)?
Its value is 105.65%.

And the “Percent of Protection” value ([2]; 6.34 × 10^-6 Molar, 6.34 µM)?
The value was 106.98%.

What about the “Percent of Control, Infected” value ([2]; 6.35 × 10^-7 Molar) of the same compound?
The value was 26.85%.

What about the “Percent of Protection” value ([2]; 6.35 × 10^-7 Molar, 0.635 µM) of the same compound?
Its value is 9.69%.

And the “Percent of Control, Infected” value ([2]; 6.36 × 10^-8 Molar)?
Its value is 17.12%.

And the “Percent of Protection” value ([2]; 6.36 × 10^-8 Molar, 0.0636 µM)?
The value was -2.32%.

And the pEC50 [2]?
Its pEC50 is 5.97.

And the Conclusion [2]?
The Conclusion was “CONFIRMED ACTIVE”.
